From the NIST ThermoML archive (doi:10.1016/j.jct.2008.02.002)
“And” between values parts separate entries of the source, which are not always exact repeats. Identical values can stand only once.

Conditions: Liquid, Transpiration method

CCCCCC1CCC(=O)O1 (stereo unspecified) [2(3H)-furanone, dihydro-5-pentyl-]
Conditions | vapor or sublimation pressure [kPa]
296.2 K | 0.00085
300 K | 0.00123
306 K | 0.00211
313.1 K | 0.00391
318.1 K | 0.00574
323.2 K | 0.0088
328.2 K | 0.01277
333.1 K | 0.01835
338 K | 0.02514
342.8 K | 0.03648
348.4 K | 0.05463
353.2 K | 0.07252
358.1 K | 0.1037
363.4 K | 0.1375

CCCC1CCC(=O)O1 (stereo unspecified) [2(3H)-furanone, dihydro-5-propyl-]
Conditions | vapor or sublimation pressure [kPa]
298.1 K | 0.00729
302.8 K | 0.01081
308 K | 0.01613
313.1 K | 0.02435
318 K | 0.03459
323.1 K | 0.05178
328.1 K | 0.07127
333 K | 0.09289
338.2 K | 0.1344
343.2 K | 0.1842
348.2 K | 0.2432
353.2 K | 0.3239
358.4 K | 0.4408
363.2 K | 0.572

CC1CCC(=O)O1 (stereo unspecified) [γ-valerolactone]
Conditions | vapor or sublimation pressure [kPa]
275.8 K | 0.00748
282 K | 0.0128
288 K | 0.02076
292.8 K | 0.02954
293.4 K | 0.03202
298.6 K | 0.04438
300.7 K | 0.05548
302.7 K | 0.06032
306.6 K | 0.08358
309 K | 0.09563
312.9 K | 0.1265
317.3 K | 0.1599
322.3 K | 0.2195
326.9 K | 0.2912
332.4 K | 0.3929
333.9 K | 0.4475
337.3 K | 0.5167
338.8 K | 0.58
342.6 K | 0.7011
343.8 K | 0.759
347.5 K | 0.9099
349.7 K | 1.033

CCC1CCC(=O)O1 (stereo unspecified) [2(3H)-furanone, 5-ethyldihydro-]
Conditions | vapor or sublimation pressure [kPa]
283.3 K | 0.00612
284.1 K | 0.00643
285.3 K | 0.00733
288.2 K | 0.00998
290.2 K | 0.01151
293.2 K | 0.01468
295.3 K | 0.0168
298.2 K | 0.02155
300.2 K | 0.0271
303.2 K | 0.0324
305.2 K | 0.0372
308.1 K | 0.04647
310.1 K | 0.05153
313.2 K | 0.06502
315.1 K | 0.06992
318.2 K | 0.08725
323.2 K | 0.1267
328.2 K | 0.1719
333.2 K | 0.2306
338.2 K | 0.3093
343.1 K | 0.4065
348.2 K | 0.5374
350.9 K | 0.6238
353.3 K | 0.6982

CCCCCCC1CCC(=O)O1 (stereo unspecified) [γ-decalactone]
Conditions | vapor or sublimation pressure
298.4 K | 0.00035 kPa
303.3 K | 0.00056 kPa
308.2 K | 0.00088 kPa
313.1 K | 0.00146 kPa
313.4 K | 0.00144 kPa
318.2 K | 0.00214 kPa and 0.00233 kPa
322.9 K | 0.00339 kPa
323.2 K | 0.00345 kPa
328.1 K | 0.00532 kPa
328.2 K | 0.00523 kPa
333 K | 0.00765 kPa
333.2 K | 0.00791 kPa
338.1 K | 0.0114 kPa
338.7 K | 0.01181 kPa
343.2 K | 0.01646 kPa
343.9 K | 0.01747 kPa
348.2 K | 0.02361 kPa
349.4 K | 0.02507 kPa
353.3 K | 0.03379 kPa
354.8 K | 0.03595 kPa
360.3 K | 0.05404 kPa
365 K | 0.07279 kPa
